Measurements taken from patent US20090178145A1, “Methods and targets for identifying compounds for regulating angiogenesis” (The Procter & Gamble Company, priority 2005, published 2009).

Experiments:
ETL = test: Zebrafish morpholino knockdown of ETL: blood circulation and intersegmental vessel morphology; format: in vivo
Source text: (§1) To assess gene function in zebrafish (Danio rario) angiogenesis, MOs directed against ETL, GPR (or GPR176) and their respective mismatch controls are microinjected into zebrafish at the 1-2 cell stage. Blood circulation through the intersegmental vessels (ISVs) is observed in live zebrafish at 48 hpf and morphology of ISVs in the tail at 48 hpf using Phy-V antibody staining is also examined as described (Seng W. L. et al., Angiogenesis. 2004; 7(3):243-53.). The sequence for the ETL morpholino is: […]. The sequence for the mismatch […] morpholino (small case letters indicate mismatches) is: GCAcGAcTTTgATTGGAcAACTcTG. The sequence for the GPR morpholino is: […]. The sequence for the mismatch […] morpholino (small case letters indicate mismatches) is: AGgTCTgCGCcTTATCCcCCTCgAT.
While transcriptional gene changes provide the basis for investigating ETL and GPR as regulators of vascular development, experiments are carried out to obtain functional evidence that ETL and GPR are involved in blood vessel growth and development. To accomplish this, a zebrafish model may be used with ETL or GPR morpholino oligos to reduce gene expression during vasculogenesis. […] This effect is not seen in control MO injections.

GPR176 = test: Zebrafish morpholino knockdown of GPR (GPR176): blood circulation and intersegmental vessel morphology; format: in vivo; details: 48 hpf
Source text: as §1
This effect is not seen in control MO injections.

Substance	zebrafish affected (same ISV phenotype as the 0.5 pmol dose) (ETL; 0.25 pmol ETL MO, 48 hpf)	zebrafish with abnormal connections and incomplete vessel formation of ISVs by immunostaining (ETL; 0.5 pmol ETL MO injected at 1-2 cell stage, 48 hpf)	body morphology in live zebrafish (ETL; 0.5 pmol ETL MO, 48 hpf)	blood circulation through the intersegmental vessels in live zebrafish (ETL; 0.5 pmol ETL MO, 48 hpf, versus mismatch control)	phenotype of knockdown in images (FIG. 7) (ETL; 48 hours post fertilization, versus mismatch control)	zebrafish affected (similar ISV phenotype as the 0.5 pmol dose) (GPR176; 0.25 pmol GPR MO)	body morphology in live zebrafish (GPR176; 0.5 pmol GPR MO)	zebrafish with abnormal connections and incomplete vessel formation of ISVs by immunostaining (GPR176; 0.5 pmol GPR MO, experiment 1)	zebrafish with abnormal connections and incomplete vessel formation of ISVs by immunostaining (GPR176; 0.5 pmol GPR MO, experiment 2)	blood circulation through the intersegmental vessels in live zebrafish (GPR176; 0.5 pmol GPR MO, versus mismatch control)
ETL MO: morpholino oligo directed against zebrafish ETL, sequence GCAGGAGTTTCATTGGAGAACTGTG (SEQ ID NO 17) (all phosphorodiamidate morpholino (PMO))	70%	100%	slightly curved body morphology	visible circulatory defects	retarded eye formation, edema in the brain and disrupted intersegmental vessel development and disrupted blood circulation					
GPR MO: morpholino oligo directed against zebrafish GPR176, sequence AGCTCTCCGCGTTATCCGCCTCCAT (SEQ ID NO 19) (all phosphorodiamidate morpholino (PMO))						37%	slightly curved body morphology	76%	94%	visible circulatory defects
